PMC8509398, “Proteolytic Cleavage of Bioactive Peptides and Protease-Activated Receptors in Acute and Post-Colitis” (International Journal of Molecular Sciences, 2021)

Experiments:
trypsin-1 = trypsin-1 (Homo sapiens, UniProt P07477); experiment: Cleavage of peptides by purified trypsin-1, MALDI-TOF/TOF; details: 25 nM protease, 10 µM peptide; for Efficiency of the first cleavage in the peptide, Trypsin-1: 37 °C, 2, 5, 10 and 30 min, stopped with 2% TFA; for Incubation time at which the first cleavage or decrease of the full-length peptide was observed, trypsin-1: 37 °C, time points 2, 5, 10, 30 min
From the text: (§1) Trypsin-like proteases included in the experiments are trypsin-1, -2 and -3, tryptase (Enzo LifeSciences), thrombin (Sigma-Aldrich) and cathepsin G (Sigma-Aldrich). Trypsin-1, -2 and -3 were produced as described by Koistinen et al. and Wu et al.. Two elastase-like enzymes, neutrophil elastase (Enzo LifeSciences, Farmingdale, NY, USA) and pancreatic elastase I (Sigma-Aldrich) were included as well. All enzymes were from human origin except for pancreatic elastase from porcine pancreas.
(§2) Reaction mixtures with purified enzymes were compiled in an identical way. Each mixture contained an equimolar concentration of protease (25 nM based on) and 10 µM peptide of interest and was incubated for 2, 5, 10 and 30 min at 37 °C. Substance P was added as the standard peptide except for the reaction mixtures with substance P or bradykinin as the peptide of interest, where angiotensin II (Bachem) was added.
(§3) The TFA mixtures were thawed on ice and desalted using C18 zip-tips (Merck Millipore®, Burlington, MA, USA) with a capacity of 5 µg protein. Retained peptide fragments were eluted directly on the MALDI target plate. Next, 0.5 µL of a 2.5 mg/mL α-cyano-4-hydroxycinnamic acid (Sigma-Aldrich) matrix solution (in 70% acetonitrile, 0.1% TFA) was spotted on top of the sample. A 6-Peptide mixture Kit (AB Sciex, Framingham, MA, USA) containing bradykinin (2–9), angiotensin I, glu1-fibrinopeptide, ACTH (1–17), ACTH (18–39) and ACTH (7–38) was diluted with matrix and spotted on the plate as well.
(§4) MS and MS/MS data for peptide fragment identification were obtained with a MALDI-TOF/TOF instrument (4800 MALDI TOF/TOF™, Applied Biosystems, Waltham, MA, USA) and instrument parameters were set using 4000 Series Explorer™ software. MS spectra were recorded in positive reflector mode in a mass range from 500 to 4000 Da and laser intensity of 4500–4800 Hz. The spectra were calibrated using the calibration mixture mentioned above to a mass tolerance of 0.1 Da. MS/MS spectra were recorded with high-energy collision-induced dissociation and the laser intensity was increased by 10%. Precursor mass m/z 1570.65 (Glu1-Fibrinopeptide from the calibration mixture) was used to calibrate the MS/MS spectra to a mass tolerance of 0.1 Da.
(§5) MS and MS/MS spectra were processed using DataExplorer™ software and the obtained output files were uploaded in the MS-PEP data analyzer (https://bioit.shinyapps.io/PARs/ accessed 10/08/2020) for peptide fragment identification. Identified fragments were confirmed using the MS/MS spectra and mMass 5.5.0 by Martin Strohalm. The relative intensities of the fragments were calculated as the ratio of the intensity of the peak of interest to the intensity of the peak of the standard peptide.

thrombin = thrombin (Homo sapiens, UniProt P00734); experiment: Cleavage of peptides by purified thrombin, MALDI-TOF/TOF; details: 25 nM protease, 10 µM peptide; for Efficiency of the first cleavage in the peptide, Thrombin: 37 °C, 2, 5, 10 and 30 min, stopped with 2% TFA; for Incubation time at which the first cleavage or decrease of the full-length peptide was observed, thrombin: 37 °C, time points 2, 5, 10, 30 min
From the text: as §1, §2, §3, §4, §5

neutrophil elastase = target: T1, neutrophil elastase (Homo sapiens, UniProt P08246); experiment: Cleavage of peptides by purified neutrophil elastase, MALDI-TOF/TOF; details: 25 nM protease, 10 µM peptide; for Efficiency of the first cleavage in the peptide, Neutrophil Elastase: 37 °C, 2, 5, 10 and 30 min, stopped with 2% TFA; for Incubation time at which the first cleavage or decrease of the full-length peptide was observed, neutrophil elastase: 37 °C, time points 2, 5, 10, 30 min
T1 sequence (P08246 30-267): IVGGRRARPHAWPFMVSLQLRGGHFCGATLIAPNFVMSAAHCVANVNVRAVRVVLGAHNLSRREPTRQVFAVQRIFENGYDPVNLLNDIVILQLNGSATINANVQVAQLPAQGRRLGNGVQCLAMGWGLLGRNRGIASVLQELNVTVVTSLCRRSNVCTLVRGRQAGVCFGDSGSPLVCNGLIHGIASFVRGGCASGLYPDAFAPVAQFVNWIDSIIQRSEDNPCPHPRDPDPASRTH
From the text: as §1
(§6) Reaction mixtures with purified enzymes were compiled in an identical way. […] Substance P was added as the standard peptide except for the reaction mixtures with substance P or bradykinin as the peptide of interest, where angiotensin II (Bachem) was added.
as §3
as §4, with “10%.” for “10%. Precursor mass m/z 1570.65 (Glu1-Fibrinopeptide from the calibration mixture) was used to calibrate the MS/MS spectra to a mass tolerance of 0.1 Da.”
(§7) Identified fragments were confirmed using the MS/MS spectra and mMass 5.5.0 by Martin Strohalm. The relative intensities of the fragments were calculated as the ratio of the intensity of the peak of interest to the intensity of the peak of the standard peptide.

trypsin-2 = trypsin-2 (Homo sapiens, UniProt P07478); experiment: Cleavage of peptides by purified trypsin-2, MALDI-TOF/TOF; details: 25 nM protease, 10 µM peptide; for Efficiency of the first cleavage in the peptide, Trypsin-2: 37 °C, 2, 5, 10 and 30 min, stopped with 2% TFA; for Incubation time at which the first cleavage or decrease of the full-length peptide was observed, trypsin-2: 37 °C, time points 2, 5, 10, 30 min
From the text: as §1, §2, §3, §4, §5

tryptase = tryptase (Homo sapiens, UniProt Q15661); experiment: Cleavage of peptides by purified tryptase, MALDI-TOF/TOF; details: 25 nM protease, 10 µM peptide; for Efficiency of the first cleavage in the peptide, Tryptase: 37 °C, 2, 5, 10 and 30 min, stopped with 2% TFA; for Incubation time at which the first cleavage or decrease of the full-length peptide was observed, tryptase: 37 °C, time points 2, 5, 10, 30 min
From the text: as §1, §2, §3, §4, §5

cathepsin G = target: T2, cathepsin G (Homo sapiens, UniProt P08311); experiment: Cleavage of peptides by purified cathepsin G, MALDI-TOF/TOF; details: 25 nM protease, 10 µM peptide; for Efficiency of the first cleavage in the peptide, Cathepsin G: 37 °C, 2, 5, 10 and 30 min, stopped with 2% TFA
T2 sequence (P08311 21-255): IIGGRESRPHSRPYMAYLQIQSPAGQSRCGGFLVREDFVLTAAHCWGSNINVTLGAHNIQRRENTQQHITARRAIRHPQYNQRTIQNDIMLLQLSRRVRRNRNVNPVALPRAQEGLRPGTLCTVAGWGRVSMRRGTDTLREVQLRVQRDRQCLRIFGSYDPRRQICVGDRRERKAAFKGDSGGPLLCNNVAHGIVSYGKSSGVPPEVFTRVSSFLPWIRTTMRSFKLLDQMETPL
From the text: as §1, §6, §3
as §4, with “10%.” for “10%. Precursor mass m/z 1570.65 (Glu1-Fibrinopeptide from the calibration mixture) was used to calibrate the MS/MS spectra to a mass tolerance of 0.1 Da.”
as §7

pancreatic elastase I = pancreatic elastase I (Sus scrofa, UniProt P00772); experiment: Cleavage of peptides by purified pancreatic elastase, MALDI-TOF/TOF; details: 25 nM protease, 10 µM peptide; for Efficiency of the first cleavage in the peptide, Pancreatic Elastase: 37 °C, 2, 5, 10 and 30 min, stopped with 2% TFA; for Incubation time at which the first cleavage or decrease of the full-length peptide was observed, pancreatic elastase: 37 °C, time points 2, 5, 10, 30 min
From the text: as §1, §6, §3
as §4, with “10%.” for “10%. Precursor mass m/z 1570.65 (Glu1-Fibrinopeptide from the calibration mixture) was used to calibrate the MS/MS spectra to a mass tolerance of 0.1 Da.”
as §7

Chain of tryptase (Q15661 31-275): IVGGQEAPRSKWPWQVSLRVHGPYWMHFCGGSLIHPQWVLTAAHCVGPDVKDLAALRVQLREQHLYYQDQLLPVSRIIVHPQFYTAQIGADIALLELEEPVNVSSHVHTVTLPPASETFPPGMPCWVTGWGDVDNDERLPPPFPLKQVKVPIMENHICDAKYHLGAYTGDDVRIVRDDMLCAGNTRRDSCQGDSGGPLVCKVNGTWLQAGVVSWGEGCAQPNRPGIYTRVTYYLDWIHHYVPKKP
Chain of trypsin-2 (P07478 24-247): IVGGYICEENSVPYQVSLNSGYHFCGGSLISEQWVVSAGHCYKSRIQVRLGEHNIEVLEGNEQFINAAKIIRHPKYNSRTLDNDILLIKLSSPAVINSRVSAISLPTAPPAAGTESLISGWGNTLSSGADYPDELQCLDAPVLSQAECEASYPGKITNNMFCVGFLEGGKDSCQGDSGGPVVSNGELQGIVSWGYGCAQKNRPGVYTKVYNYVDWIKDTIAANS
Chain of pancreatic elastase I (P00772 27-266): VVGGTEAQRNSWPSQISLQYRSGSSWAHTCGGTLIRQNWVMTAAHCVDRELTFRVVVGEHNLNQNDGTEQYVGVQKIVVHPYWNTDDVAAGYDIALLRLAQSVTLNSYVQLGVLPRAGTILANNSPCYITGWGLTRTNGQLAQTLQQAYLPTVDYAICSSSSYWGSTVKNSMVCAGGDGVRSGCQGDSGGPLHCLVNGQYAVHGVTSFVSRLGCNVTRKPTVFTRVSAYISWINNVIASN

| Compound | Efficiency of the first cleavage in the peptide, Trypsin-1 (trypsin-1) | Incubation time at which the first cleavage or decrease of the full-length peptide was observed, trypsin-1 (trypsin-1) [min] | Efficiency of the first cleavage in the peptide, Thrombin (thrombin) | Incubation time at which the first cleavage or decrease of the full-length peptide was observed, thrombin (thrombin) [min] | Efficiency of the first cleavage in the peptide, Neutrophil Elastase (neutrophil elastase) | Incubation time at which the first cleavage or decrease of the full-length peptide was observed, neutrophil elastase (neutrophil elastase) [min] | Efficiency of the first cleavage in the peptide, Trypsin-2 (trypsin-2) | Incubation time at which the first cleavage or decrease of the full-length peptide was observed, trypsin-2 (trypsin-2) [min] | Efficiency of the first cleavage in the peptide, Tryptase (tryptase) | Incubation time at which the first cleavage or decrease of the full-length peptide was observed, tryptase (tryptase) [min] | Efficiency of the first cleavage in the peptide, Cathepsin G (cathepsin G) | Efficiency of the first cleavage in the peptide, Pancreatic Elastase (pancreatic elastase I) | Incubation time at which the first cleavage or decrease of the full-length peptide was observed, pancreatic elastase (pancreatic elastase I) [min] | Incubation time at which the first cleavage or decrease of the full-length peptide was observed, cathepsin G (cathepsin G; 37 °C, time points 2, 5, 10, 30 min) [min] |
| --- | --- | --- | --- | --- | --- | --- | --- | --- | --- | --- | --- | --- | --- | --- |
| CC[C@H](C)[C@H](NC(=O)[C@H](CO)NC(=O)[C@H](CC(N)=O)NC(=O)[C@H](CC(C)C)NC(=O)[C@H](Cc1ccc(O)cc1)NC(=O)[C@H](CCCCN)NC(=O)[C@H](CCCCN)NC(=O)[C@@H](NC(=O)[C@H](C)NC(=O)[C@H](CCSC)NC(=O)[C@H](CCC(N)=O)NC(=O)[C@H](CCCCN)NC(=O)[C@H](CCCN=C(N)N)NC(=O)[C@H](CC(C)C)NC(=O)[C@H](CCCN=C(N)N)NC(=O)[C@@H](NC(=O)[C@H](Cc1ccc(O)cc1)NC(=O)[C@H](CC(N)=O)NC(=O)[C@H](CC(=O)O)NC(=O)[C@@H](NC(=O)[C@H](Cc1ccccc1)NC(=O)[C@@H](NC(=O)[C@H](C)NC(=O)[C@H](CC(=O)O)NC(=O)[C@H](CO)NC(=O)[C@@H](N)Cc1c[nH]cn1)C(C)C)[C@@H](C)O)[C@@H](C)O)C(C)C)C(=O)N[C@@H](CC(C)C)C(=O)N[C@@H](CC(N)=O)C(N)=O [VIP, Vasoactive intestinal peptide] | +++ (ultrafast processing within 2 min) | 2 | − | > 30 | +++ (ultrafast processing within 2 min) | 2 | +++ (ultrafast processing within 2 min) | 2 | +++ (ultrafast processing within 2 min) | 2 | +++ (ultrafast processing within 2 min) | +++ (ultrafast processing within 2 min) | 2 |  |
| CC[C@H](C)[C@H](NC(=O)[C@H](C)NC(=O)[C@H](CC(N)=O)NC(=O)[C@H](CCCCN)NC(=O)[C@H](Cc1ccccc1)NC(=O)[C@H](CC(C)C)NC(=O)[C@@H](NC(=O)[C@@H](NC(=O)[C@H](CC(C)C)NC(=O)[C@@H]1CCCN1C(=O)[C@@H](NC(=O)[C@H](CCC(N)=O)NC(=O)[C@H](CO)NC(=O)[C@H](CCCCN)NC(=O)[C@H](CCC(=O)O)NC(=O)[C@H](CO)NC(=O)[C@@H](NC(=O)[C@H](CCSC)NC(=O)[C@H](Cc1ccccc1)NC(=O)CNC(=O)CNC(=O)[C@@H](N)Cc1ccc(O)cc1)[C@@H](C)O)[C@@H](C)O)C(C)C)[C@@H](C)O)C(=O)N[C@H](C(=O)N[C@@H](CCCCN)C(=O)N[C@@H](CC(N)=O)C(=O)N[C@@H](C)C(=O)N[C@@H](Cc1ccc(O)cc1)C(=O)N[C@@H](CCCCN)C(=O)N[C@@H](CCCCN)C(=O)NCC(=O)N[C@@H](CCC(=O)O)C(=O)O)[C@@H](C)CC [β-endorphin] | +++ (ultrafast processing within 2 min) | 2 | − | > 30 | +++ (ultrafast processing within 2 min) | 2 | +++ (ultrafast processing within 2 min) | 2 | +++ (ultrafast processing within 2 min) | 2 | +++ (ultrafast processing within 2 min) | +++ (ultrafast processing within 2 min) | 2 | 2 |
